Results published in patent US7256187B2, “Rifamycin C-11 oxime derivatives effective against drug-resistant microbes” (Cumbre Pharmaceuticals Inc., priority 2004, dated 2007).
≈ marks a conversion by molar mass, not a printed value. Like-named read-outs stand apart in the source and are kept apart here.

Experiments:
Assay type in all cases: cell-based
[1] = system: Enterococcus faecalis ATCC29212; test: MIC, microbroth dilution; details: Enterococcus faecalis ATCC29212, rifS; read-out: Antimicrobial activity (MIC)
[2] = system: Haemophilus influenzae ATCC10211; test: MIC, microbroth dilution; details: Haemophilus influenzae ATCC10211, rifS; read-out: Antimicrobial activity (MIC)
[3] = system: Streptococcus pneumoniae ATCC6303; test: MIC, microbroth dilution; details: Streptococcus pneumoniae ATCC6303, rifS; read-out: Antimicrobial activity (MIC)
[4] = system: Staphylococcus epidermidis ATCC12228; test: MIC, microbroth dilution; details: Staphylococcus epidermidis ATCC12228, rifS; read-out: Antimicrobial activity (MIC)
[5] = system: Staphylococcus aureus ATCC29213; test: MIC, microbroth dilution
[6] = system: Escherichia coli ATCC25922; test: MIC, microbroth dilution; details: Escherichia coli ATCC25922, rifS; read-out: Antimicrobial activity (MIC)
[7] = system: Streptococcus pyogenes ATCC19615; test: MIC, microbroth dilution; details: Streptococcus pyogenes ATCC19615, rifS; read-out: Antimicrobial activity (MIC)
[8] = system: Mycobacterium smegmatis ATCC700084; test: MIC, microbroth dilution; details: Mycolicibacterium smegmatis; Mycobacterium smegmatis ATCC700084, rifS; read-out: Antimicrobial activity (MIC)
[9] = system: Staphylococcus aureus EN1252a gyrA^S84L grlA^S80F; test: microbe, parasite or virus in culture; details: read-out: Antimicrobial activity (MIC)
How it was run: (§1)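 MICs by microbroth dilution per NCCLS guidelines, with all incubations at 37° C; S. aureus tested in Cation-Adjusted Mueller-Hinton Broth. Strains carry rifampin-resistance rpoB mutations or quinolone-resistance double mutations in DNA gyrase and topoisomerase IV.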

[10] = system: Staphylococcus aureus ATCC29213 rpoB^D417Y; test: microbe, parasite or virus in culture
How it was run: as §1

[11] = system: Staphylococcus aureus ATCC29213 rpoB^H418Y; test: microbe, parasite or virus in culture
How it was run: as §1

[12] = MIC, microbroth dilution, panel of strains; details: across five rifampin-susceptible Gram-positive strains
Method: (§2) Representative compounds were assayed for antimicrobial activity as follows: Minimum Inhibitory Concentrations (“MICs”) were determined by the microbroth dilution method as per NCCLS guidelines (National Committee for Clinical Laboratory Standards. 2000. Methods for dilution antimicrobial susceptibility tests for bacteria that grow aerobically, 5th ed. M7-A5. National Committee for Clinical Laboratory Standards, Wayne, Pa.), except that all growth incubations were conducted at 37° C. Bacterial cultures were tested in the following bacteriological media: S. aureus, S. epidermidis, and E. coli in Cation-Adjusted Mueller-Hinton Broth, S. pneumoniae in THY Broth supplemented with 1 mg/mL catalase under 5% CO2 atmosphere, S. pyogenes in THY Broth, E. faecalis in BHI Broth, H. influenzae in BHI Broth supplemented with 0.75 μL of 1 mg/mL NAD and 150 μL of 1 mg/ml hematin per 5 mL, and M. smegmatis in Middlebrook Broth plus ADC Enrichment.
(§3) S. aureus […], S. epidermidis ATCC 12228, S. pneumoniae ATCC6303, S. pyogenes ATCC 19615 and E. faecalis ATCC 29212 are rifampin-susceptible Gram-positive strains. […] The compounds of the current invention show further improved activity against these strains with MICs as low as 0.0002 μg/ml. H. influenzae ATCC 10211 and E. coli ATCC 25922 are Gram-negative bacteria. […]

[13] = system: Gram-negative bacteria (H. influenzae ATCC 10211 and E. coli ATCC 25922); test: MIC, microbroth dilution, panel of strains; details: Haemophilus influenzae; across H. influenzae ATCC 10211 and E. coli ATCC 25922
Method: as §2, §3

[14] = Staphylococcus aureus ATCC29213, rifS, read-out: Antimicrobial activity (MIC)
[15] = Staphylococcus aureus EN1252a gyrA^S84L grlA^S80F, cipR
[16] = Staphylococcus aureus ATCC29213 rpoB^D417Y, rifR, read-out: Antimicrobial activity (MIC)
[17] = Staphylococcus aureus ATCC29213 rpoB^H418Y, rifR, read-out: Antimicrobial activity (MIC)
[18] = Staphylococcus aureus, ATCC29213
[19] = Staphylococcus aureus, ATCC29213, read-out: Antimicrobial activity (MIC)

| SMILES | MIC [1] | MIC [2] | MIC [3] | MIC [4] | MIC [5, 14] | MIC [6] | MIC [7] | MIC [8] | MIC [9, 15] | MIC [10, 16] | MIC [11, 17] | MIC ([5]; Staphylococcus aureus, ATCC29213, S. aureus ATCC 29213 wild type, read-out: MIC) | MIC ([9]; Staphylococcus aureus) | MIC [10, 18] | MIC [10, 19] | MIC [11, 18] | MIC [11, 19] | MIC [12] | MIC [13] |
| --- | --- | --- | --- | --- | --- | --- | --- | --- | --- | --- | --- | --- | --- | --- | --- | --- | --- | --- | --- |
| CO/N=C1/c2c3c(C)c(O)c4c2C(=O)C(N2CCOCC2)=C(NC(=O)/C(C)=C\C=C\[C@H](C)[C@H](O)[C@@H](C)[C@@H](O)[C@@H](C)[C@H](OC(C)=O)[C@H](C)[C@@H](OC)/C=C/O[C@@]1(C)O3)C4=O [Example 35, 11-Deoxy-3-(morpholin-4-yl)-11-methoxyiminorifamycin S] | 2 to 32 µg/mL (≈ 2.47 to 39.5 µM) | 0.03 to 2 µg/mL (≈ 0.037 to 2.47 µM) | 0.0002 to 0.125 µg/mL (≈ 0.000247 to 0.154 µM) | 0.0005 to 0.063 µg/mL (≈ 0.000617 to 0.0778 µM) | 0.004 to 0.5 µg/mL (≈ 0.00494 to 0.617 µM) | 0.125 to 8 µg/mL (≈ 0.154 to 9.88 µM) | 0.0005 to 0.063 µg/mL (≈ 0.000617 to 0.0778 µM) | 0.5 to 64 µg/mL (≈ 0.617 to 79 µM) | 0.004 to 0.5 µg/mL (≈ 0.00494 to 0.617 µM) | 0.25 to 32 µg/mL (≈ 0.309 to 39.5 µM) | 0.125 to 16 µg/mL (≈ 0.154 to 19.8 µM) | – | – | – | – | – | – | – | – |
| C=CCO/N=C1/c2c3c(C)c(O)c4c2C(=O)C(N2CCOCC2)=C(NC(=O)/C(C)=C\C=C\[C@H](C)[C@H](O)[C@@H](C)[C@@H](O)[C@@H](C)[C@H](OC(C)=O)[C@H](C)[C@@H](OC)/C=C/O[C@@]1(C)O3)C4=O [Example 36, 11-Deoxy-3-(morpholin-4-yl)-11-allyloxyiminorifamycin S] | 2 to 32 µg/mL (≈ 2.39 to 38.3 µM) | 0.03 to 2 µg/mL (≈ 0.0359 to 2.39 µM) | 0.0002 to 0.125 µg/mL (≈ 0.000239 to 0.15 µM) | 0.0005 to 0.063 µg/mL (≈ 0.000598 to 0.0754 µM) | 0.004 to 0.5 µg/mL (≈ 0.00478 to 0.598 µM) | 0.125 to 8 µg/mL (≈ 0.15 to 9.57 µM) | 0.0005 to 0.063 µg/mL (≈ 0.000598 to 0.0754 µM) | 0.5 to 64 µg/mL (≈ 0.598 to 76.6 µM) | 0.004 to 0.5 µg/mL (≈ 0.00478 to 0.598 µM) | 0.25 to 32 µg/mL (≈ 0.299 to 38.3 µM) | 0.125 to 16 µg/mL (≈ 0.15 to 19.1 µM) | – | – | – | – | – | – | – | – |
| CO[C@H]1/C=C/O[C@@]2(C)Oc3c(C)c(O)c4c(O)c(c(/C=N/N5CCN(C)CC5)c(O)c4c3/C2=N/O)NC(=O)/C(C)=C\C=C\[C@H](C)[C@H](O)[C@@H](C)[C@@H](O)[C@@H](C)[C@H](OC(C)=O)[C@@H]1C [Example 37, 11-Deoxy-11-hydroxyimino-3-(4-methylpiperazin-1-yl)aminomethenylrifamycin SV] | 2 to 32 µg/mL (≈ 2.39 to 38.2 µM) | 0.03 to 2 µg/mL (≈ 0.0358 to 2.39 µM) | 0.0002 to 0.125 µg/mL (≈ 0.000239 to 0.149 µM) | 0.0005 to 0.063 µg/mL (≈ 0.000597 to 0.0752 µM) | 0.004 to 0.5 µg/mL (≈ 0.00477 to 0.597 µM) | 0.125 to 8 µg/mL (≈ 0.149 to 9.55 µM) | 0.0005 to 0.063 µg/mL (≈ 0.000597 to 0.0752 µM) | 0.5 to 64 µg/mL (≈ 0.597 to 76.4 µM) | 0.004 to 0.5 µg/mL (≈ 0.00477 to 0.597 µM) | 0.25 to 32 µg/mL (≈ 0.298 to 38.2 µM) | 0.125 to 16 µg/mL (≈ 0.149 to 19.1 µM) | – | – | – | – | – | – | – | – |
| CO[C@H]1/C=C/O[C@@]2(C)Oc3c(C)c(O)c4c(c3/C2=N/O)C(=O)C(/C=N/N2CCN(C)CC2)=C(NC(=O)/C(C)=C\C=C\[C@H](C)[C@H](O)[C@@H](C)[C@@H](O)[C@@H](C)[C@H](OC(C)=O)[C@@H]1C)C4=O [Example 38, 11-Deoxy-11-hydroxyimino-3-(4-methylpiperazin-1-yl)aminomethenylrifamycin S] | 2 to 32 µg/mL (≈ 2.39 to 38.3 µM) | 0.03 to 2 µg/mL (≈ 0.0359 to 2.39 µM) | 0.0002 to 0.125 µg/mL (≈ 0.000239 to 0.15 µM) | 0.0005 to 0.063 µg/mL (≈ 0.000598 to 0.0754 µM) | 0.004 to 0.5 µg/mL (≈ 0.00478 to 0.598 µM) | 0.125 to 8 µg/mL (≈ 0.15 to 9.57 µM) | 0.0005 to 0.063 µg/mL (≈ 0.000598 to 0.0754 µM) | 0.5 to 64 µg/mL (≈ 0.598 to 76.6 µM) | 0.004 to 0.5 µg/mL (≈ 0.00478 to 0.598 µM) | 0.25 to 32 µg/mL (≈ 0.299 to 38.3 µM) | 0.125 to 16 µg/mL (≈ 0.15 to 19.1 µM) | – | – | – | – | – | – | – | – |
| CO[C@H]1/C=C/O[C@@]2(C)Oc3c(C)c(O)c4c(O)c(c(/C=N/N5CCN(c6cc7c(cc6F)c(=O)c(C(=O)O)cn7C6CC6)CC5)c(O)c4c3/C2=N/O)NC(=O)/C(C)=C\C=C\[C@H](C)[C@H](O)[C@@H](C)[C@@H](O)[C@@H](C)[C@H](OC(C)=O)[C@@H]1C [Example 39, 3-[4-(3-Carboxy-1-cyclopropyl-6-fluoro-4-oxo-1,4-dihydroquinolin-7-yl)piperazin-1-yl-aminomethylenyl]-11-deoxy-11-hydroxyiminorifamycin SV] | 2 to 32 µg/mL (≈ 1.87 to 29.9 µM) | 0.03 to 2 µg/mL (≈ 0.0281 to 1.87 µM) | 0.0002 to 0.125 µg/mL (≈ 0.000187 to 0.117 µM) | 0.0005 to 0.063 µg/mL (≈ 0.000468 to 0.0589 µM) | 0.004 to 0.5 µg/mL (≈ 0.00374 to 0.468 µM) | 0.125 to 8 µg/mL (≈ 0.117 to 7.48 µM) | 0.0005 to 0.063 µg/mL (≈ 0.000468 to 0.0589 µM) | 0.5 to 64 µg/mL (≈ 0.468 to 59.9 µM) | 0.004 to 0.5 µg/mL (≈ 0.00374 to 0.468 µM) | 0.25 to 32 µg/mL (≈ 0.234 to 29.9 µM) | 0.125 to 16 µg/mL (≈ 0.117 to 15 µM) | – | – | – | – | – | – | – | – |
| CO[C@H]1/C=C/O[C@@]2(C)Oc3c(C)c(O)c4c(O)c(c(/C=N/N5CCN(C)CC5)c(O)c4c3C2=O)NC(=O)/C(C)=C\C=C\[C@H](C)[C@H](O)[C@@H](C)[C@@H](O)[C@@H](C)[C@H](OC(C)=O)[C@@H]1C [rifampin, reference compound] | 1 µg/mL (≈ 1.22 µM) | 0.24 µg/mL (≈ 0.292 µM) | 0.061 µg/mL (≈ 0.0741 µM) | 0.03 µg/mL (≈ 0.0365 µM) | 0.008 µg/mL (≈ 0.00972 µM) | 16 µg/mL (≈ 19.4 µM) | 0.013 µg/mL (≈ 0.0158 µM) | 64 µg/mL (≈ 77.8 µM) | – | – | – | 0.008 µg/mL (≈ 0.00972 µM) | 0.004 µg/mL (≈ 0.00486 µM) | > 64 µg/mL | > 64 µg/mL | 8 µg/mL (≈ 9.72 µM) | 8 µg/mL (≈ 9.72 µM) | 0.013 to 1 µg/mL (≈ 0.0158 to 1.22 µM) | 0.24 to 16 µg/mL (≈ 0.292 to 19.4 µM) |
